These are literature values, as cited in patent US20040192587A9, “Zinc formulations as a prophylactic treatment for the common cold” (priority 2002, published 2004).

For data set [1], the system named is rhinovirus common colds. As to conditions: large prophylactic oral doses, as much as 2 grams per day.
Data set [2] has as its system common cold. As to conditions: tablet with about 23 mg elemental zinc dissolved in the mouth every two hours during 12 to 16 waking hours; sixty-five humans; untreated group 10.8 days.

For the compound `O=C1O[C@H]([C@@H](O)CO)C(O)=C1O` [vitamin C], the “frequency of acquisition of rhinovirus common colds or amount of virus shedding” value in data set [1] was “have not altered”.
For the compound zinc gluconate, in data set [2], the duration of colds was 3.9 days.
